Data: patent publication US20050019341A1, “Tumor antigen” (priority 2001, published 2005)

Assays:
[1] = system: OK-CTL (HLA-A2-restricted cytotoxic T-lymphocyte strain); assay: CTL activation test: T2 cells pulsed with peptide co-cultured with OK-CTL, IFN-γ by ELISA; format: cell-based, human; conditions: E/T ratio=10, 18 hours, dose-dependent
Protocol: The T2 cells, pulsed with each peptide in this way, were used as the target cells (T). In addition, the OK-CTL obtained in Example 1 were used as effector cells (E). Target cells amounting to 1×10^4 and effector cells amounting to 1×10^5 were mixed (E/T ratio=10) and incubated for 18 hours. After incubation, 100 μl of supernatant was collected, and IFN-γ was measured by ELISA. The quantity of IFN-γ produced by CTL against T2 cells that were not pulsed with a peptide was taken as the background and subtracted from each measurement value.

[2] = system: PBMC of HLA-A2+ brain tumor patients; targets T2 cells pulsed with corresponding peptide and/or HLA-A2+ tumor cells; assay: Induction of CTL by peptides from PBMC of brain tumor patients (Example 5): IFN-γ production; format: cell-based, human; conditions: Patient Case 4 (brain tumor)
Protocol: (§1) The PBMC were prepared by methods of the art from the blood of three primary brain tumor patients and one metastatic brain tumor patient. The PBMC obtained were stimulated by incubation with each peptide in the same way as in Example 4, and were cultured by the same method as in Example 3 using T2 cells that were pulsed with each corresponding peptide or KNS60 tumor cells as target cells, followed by measuring the quantity of IFN-γ produced. When T2 cells that were pulsed with the peptides were used as target cells, the PBMC was paired with the T2 cells in such a way that the peptide used to stimulate PBMC and the peptide pulsed to T2 cells were the same.

[3] = system: PBMC of multiple sclerosis patients; T2 cells pulsed with corresponding peptide; assay: Peptide recognition in PBMC of multiple sclerosis patients (Example 6): IFN-γ production against peptide-pulsed T2 cells; format: cell-based, human; conditions: MS Patient Case 7
Protocol: as §1
(§2) Among the 13 types of peptide obtained in Example 3, three peptides, P101 (SEQ ID NO: 1), P102 (SEQ ID NO: 2), and P103 (SEQ ID NO: 3), which were derived from clone 8B6, as well as three peptides, P104 (SEQ ID NO: 4), P105 (SEQ ID NO: 5), and P106 (SEQ ID NO: 6), which were derived from clone 2G2, were examined for their ability to induce CTL from PBMC obtained from multiple sclerosis patients having HLA-A2 as the HLA type and healthy subjects, in the same manner as in Example 5.

HLA-A2+ tumor cells = assay: Peptide-stimulated PBMC of multiple sclerosis patients: recognition of tumor cells (IFN-γ); format: cell-based, human; conditions: PBMC from multiple sclerosis patients
Protocol: as §1, §2

immunoglobulin E (IgE) = assay: ELISA for peptide-specific IgE in serum; format: binding, human; conditions: serum of MS patients
Protocol: The presence of immunoglobulin E (IgE) and immunoglobulin G (IgG) that specifically recognize P102 (SEQ ID NO: 2), P103 (SEQ ID NO: 3), P104 (SEQ ID NO: 4), or P106 (SEQ ID NO: 6) in the serum of a multiple sclerosis patient, a brain tumor patient, and a healthy subject was measured by the enzyme-linked immunosorbent assay (ELISA).
Each aforementioned peptide (20 μg/well) was immobilized in a 96-well Nunc Covalink flat-bottomed plate (Fisher Scientific), using disuccinimidyl suberate (PIERCE), following the product instructions. This plate was blocked with Block Ace (Yukijirushi) and washed with 0.05% Tween20-PBS; a serum or blood plasma sample was diluted with 0.05% Tween20-Block Ace and added to the plate at 100 μl/well. After incubation for 2 hours at 37° C., the plate was washed with 0.05% Tween20-PBS and further incubated for 2 hours at 37° C. with rabbit anti-human IgE antibody (E chain-specific), anti-human IgG antibody (y chain-specific) (DAKO), or anti-human IgG subclass-specific antibody (Zymed Laboratories), each of which were diluted to 1:1000. […] Thereafter, the reaction was stopped by adding 1 M phosphoric acid, and the optical density (OD) at 450 nm was measured. In so doing, peptides derived from EBV, HIV, SART2 (JP-11-318455), or SART3 (Cancer Research, 1999, Volume 59, pp. […]) were used as controls and measured similarly. […]

Question: Which “recognition by OK-CTL / production of IFN-γ from OK-CTL” value [1] does the source give for “IMSRDLVPRI (Designed peptide recognized by HLA-A2-restricted cytotoxic T lymphocytes) [P102, peptide derived from clone 8B6]” here?
Answer: enhanced production of IFN-γ from OK-CTL

Question: What about the “production of IFN-γ from PBMC” value [2] of the same sequence?
Answer: enhanced production of IFN-γ

Question: What about the “production of IFN-γ from PBMC” value [3] of the same sequence?
Answer: enhanced production of IFN-γ

Question: And the “recognition of tumor cells by peptide-stimulated PBMC” value (HLA-A2+ tumor cells)?
Answer: did not recognize the tumor cells

Question: And the “IgE that specifically recognizes the peptide” value (immunoglobulin E (IgE))?
Answer: is present
